Data reported in US20260347336A1, “PRODRUGS, FORMULATIONS AND METHODS THEREOF” (OCULAR THERAPEUTIX, INC., priority 2022, published 2026).
≈ marks a conversion by molar mass, not a printed value.

Key:
[1] = Solubility of axitinib prodrugs in phosphate buffer saline (Example 7); type: physicochemical; details: phosphate buffer saline (PBS, pH-7.40)
Method: Axitinib prodrugs of the present invention were tested for solubility in phosphate buffer saline (PBS, pH-7.40).

[2] = Solubility of axitinib and prodrug in phosphate buffer saline pH 7.4, 24 hour at 22 °C (Example 2); type: physicochemical
Method: Solubility testing was performed with the following test items and conditions: • Test items: axitinib (99.99% purity by HPLC); axitinib-N-mPEG-succinoyloxymethyl prodrug (93.6% purity by HPLC) • Test media: phosphate buffer saline pH 7.4 • Incubation condition: 24 hour at 22 °C with continuous shaking • Test concentration: 1 mg/mL • Data analysis: Solubility of test item was determined by HPLC analysis with calibration curve

[3] = Stability in phosphate buffer saline (Example 8); type: physicochemical; details: PBS, pH-7.40; for remaining at 24 h / remaining at 72 h / remaining at 168 h: phosphate buffer saline, pH 7.4, read-out: % remaining compared to Day 0; for remaining at 24 h: Day 1; for remaining at 72 h: Day 3; for remaining at 168 h: Day 7
Method: Axitinib prodrugs of the present invention were tested for stability in phosphate buffer saline (PBS, pH-7.40).

[4] = cited from earlier work
[5] = Particle size after micronization (Example 6); type: physicochemical; details: micronized
Source text: The micronization of the axitinib-N-m (PEG)2-oxymethyl prodrug obtained in Example 6 in a dry dispersion was D90=12.4 μm; D50=3.6 μm and D10=0.6 μm and dispersed in water was D90=12.2 μm; D50=5.2 μm and D10=1.1 μm.

[6] = phosphate buffer saline pH 7.4, 24 hour at 22 °C, continuous shaking, test concentration 1 mg/mL, HPLC

Molecule | solubility [1] | % remaining compared to Day 0 [3] | remaining at 24 h [3] | remaining at 72 h [3] | remaining at 168 h [3] | solubility ([1]; pH 7.4, read-out: Solubility) | further results
CNC(=O)c1ccccc1Sc1ccc2c(/C=C/c3ccccn3)nn(COC(=O)CCOC)c2c1 [Axitinib-N-m(PEG)1-oxymethyl prodrug] | Not Soluble | 100.00% | 38.8% | 6.7% | 5% | – | –
CNC(=O)c1ccccc1Sc1ccc2c(/C=C/c3ccccn3)n[nH]c2c1 [Axitinib, axitinib, reference compound] | – | 100.00% | 96.7% | 96.2% | 91.8% | – | literature reported solubility [4]: about 0.2 mcg/mL; solubility at 24 h [2, 6]: < 0.78 µg/mL
CNC(=O)c1ccccc1Sc1ccc2c(/C=C/c3ccccn3)nn(COC(=O)CCC(=O)O)c2c1 [Axitinib-N-Succinoyloxymethyl Prodrug] | – | – | – | – | – | 217 µg/mL (≈ 421 µM) | –

Second part, led by results:

solubility [1] | % remaining compared to Day 0 [3] | remaining at 24 h [3] | remaining at 72 h [3] | remaining at 168 h [3] | solubility ([1]; pH 7.4, read-out: Solubility) | Molecule | further results
99.37 µg/mL | – | – | – | – | – | axitinib-N-mPEG-succinoyloxymethyl [N-mPEG succinoyloxymethyl Prodrug] | solubility [2, 6]: 99.37 µg/mL; solubility enhancement of prodrug ([2]; versus axitinib): ~ 500 ×
– | 100.00% | 53.9% | 24% | 12.7% | 6.16 µg/mL (≈ 10.4 µM) | CNC(=O)c1ccccc1Sc1ccc2c(/C=C/c3ccccn3)nn(COC(=O)CCOCCOCCOC)c2c1 [Axitinib-N-m(PEG)3-oxymethyl prodrug] | –
– | 100.00% | 45.9% | 30.5% | 16.9% | 1.1 µg/mL (≈ 2.01 µM) | CNC(=O)c1ccccc1Sc1ccc2c(/C=C/c3ccccn3)nn(COC(=O)CCOCCOC)c2c1 [Axitinib-N-m(PEG)2-oxymethyl prodrug] | D10 ([5]; dispersed in water): 1.1 μm; D50 ([5]; dispersed in water): 5.2 μm; D90 ([5]; dispersed in water): 12.2 μm; D10 ([5]; dry dispersion): 0.6 μm; D50 ([5]; dry dispersion): 3.6 μm; D90 ([5]; dry dispersion): 12.4 μm
